From PubChem BioAssay (NCI)
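GI50 is the concentration that inhibits growth by half. TGI denotes the concentration required for complete inhibition of growth.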

Tests used:
Assay in all cases: DTP human tumour cell line panel, 384-well format
786-0 renal = test system: 786-0 renal
HCT-116 colon = test system: HCT-116 colon
HCT-15 colon = test system: HCT-15 colon
HL-60(TB) leukemia = test system: HL-60(TB) leukemia
IGROV1 ovarian = test system: IGROV1 ovarian
KM12 colon = test system: KM12 colon
MDA-MB-468 breast = test system: MDA-MB-468 breast
OVCAR-8 ovarian = test system: OVCAR-8 ovarian
SK-MEL-5 melanoma = test system: SK-MEL-5 melanoma
SW-620 colon = test system: SW-620 colon
TK-10 renal = test system: TK-10 renal
UACC-257 melanoma = test system: UACC-257 melanoma
UACC-62 melanoma = test system: UACC-62 melanoma

N=C(N)c1ccc2nc(-c3cc(CC(=O)N[C@@H](CC(=O)O)C(=O)O)cc(-c4cc(S(N)(=O)=O)ccc4O)c3O)[nH]c2c1
GI50 (786-0 renal): > 100 µM
TGI (786-0 renal): > 100 µM
GI50 (HCT-116 colon): > 100 µM
TGI (HCT-116 colon): > 100 µM
GI50 (HCT-15 colon): > 100 µM
TGI (HCT-15 colon): > 100 µM
GI50 (HL-60(TB) leukemia): > 100 µM
TGI (HL-60(TB) leukemia): > 100 µM
GI50 (IGROV1 ovarian): > 100 µM
TGI (IGROV1 ovarian): > 100 µM
GI50 (KM12 colon): > 100 µM
TGI (KM12 colon): > 100 µM
GI50 (MDA-MB-468 breast): > 100 µM
TGI (MDA-MB-468 breast): > 100 µM
GI50 (OVCAR-8 ovarian): > 100 µM
TGI (OVCAR-8 ovarian): > 100 µM
GI50 (SK-MEL-5 melanoma): > 100 µM
TGI (SK-MEL-5 melanoma): > 100 µM
GI50 (SW-620 colon): > 100 µM
TGI (SW-620 colon): > 100 µM
GI50 (TK-10 renal): > 100 µM
TGI (TK-10 renal): > 100 µM
GI50 (UACC-257 melanoma): > 100 µM
TGI (UACC-257 melanoma): > 100 µM
GI50 (UACC-62 melanoma): > 100 µM
TGI (UACC-62 melanoma): > 100 µM
